# What was measured:
# β2-GPI [1] = biological target: T1, β2-GPI (Homo sapiens, UniProt P02749); experiment: ELISA using a plate coated with the ligand, β2-GPI binding detected by anti-β2-GPI antibody; conditions: immobilized lipid; for β2-GPI-binding(OD) w/Cof-22, value in parentheses / β2-GPI-binding(OD) w/EY2C9, value in parentheses / β2-GPI-binding(OD) w/WB-CAL-1, value in parentheses: not explained (method: presence or absence of β2-GPI); for β2-GPI-binding(OD) w/Cof-22: detection with Cof-22; for β2-GPI-binding(OD) w/Cof-22 / β2-GPI-binding(OD) w/EY2C9 / β2-GPI-binding(OD) w/WB-CAL-1: upper value of the pair; for β2-GPI-binding(OD) w/EY2C9: detection with EY2C9; for β2-GPI-binding(OD) w/WB-CAL-1: detection with WB-CAL-1
# T1 construct: β2-GPI was purified from plasma in healthy persons; from tissue; host or cells: pooled human plasma from healthy persons
# T1 sequence (P02749 20-345): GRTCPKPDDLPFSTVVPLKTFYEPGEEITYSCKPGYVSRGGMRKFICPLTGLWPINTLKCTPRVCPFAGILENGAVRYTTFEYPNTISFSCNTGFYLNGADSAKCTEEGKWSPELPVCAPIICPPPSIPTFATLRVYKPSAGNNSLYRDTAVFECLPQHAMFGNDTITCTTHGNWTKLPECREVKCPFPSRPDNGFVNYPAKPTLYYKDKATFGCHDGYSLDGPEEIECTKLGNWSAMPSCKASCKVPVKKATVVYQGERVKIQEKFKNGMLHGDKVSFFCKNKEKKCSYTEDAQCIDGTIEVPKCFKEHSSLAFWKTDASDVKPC
# Experimental: (7) ELISA for Detection of Anti-β2-GPI/Lipid IgG Antibody
# CL (derived from bovine heart, manufactured by Sigma), oxLig-1 or 9-COOH-22KC (50 μg/ml ethanol, 50 μl/well) was adsorbed by evaporation onto a polystyrene plate (Immulon 1B; Dynex Technologies Inc.), and this plate was blocked with 1% BSA. In each well, the purified monoclonal autoantibody or serum sample (100-fold dilution) was incubated for 1 hour in the presence or absence of β2-GPI (25 μg/ml), and then HRP-labeled anti-mouse IgG or anti-human IgG or IgM was added to each well.
# The subsequent step was carried out according to the method described in the “ELISA for detection of β2-GPI/oxLDL complex”. The optical density (OD) of each sample was corrected by the average OD of the blank wells, and its antibody titer was calculated by using the positive standard in the living body. When the antibody titer in a sample was more than 3 times as high as the standard deviation of the mean of plasma samples from 50 healthy persons, the sample was expressed as positive.
# β2-GPI [2] = biological target: T1, β2-GPI; experiment: Ligand blotting analysis on a TLC plate; type: binding; conditions: detection by Cof-22 antibody and EY2C9 antibody; FIG. 1
# Experimental: FIG. 1 is a graph showing ligand blotting analysis of two ω-carbdxylmutants (oxLig-1 and 9-COOH-22KC) of oxysterol ester. The ligand developed on a TLC plate was stained with I2 vapor (A), and the ligand blotting was conducted by using anti-β2-GPI antibody (Cof-22 (B) and EY2C9 (C)).
# (5) Ligand Blotting Analysis on a Thin-Layer Chromatography (TLC) Plate
# For conducting TLC ligand blotting, the lipid was spotted on a Polygram silica gel G plate (manufactured by Machery-Nagel) and developed with chloroform/methanol (8/1, v/v). The ligand blotting analysis was conducted according to a method described in [reference 7]. That is, the plate was dried and blocked with PBS containing 1% bovine serum albumin (BSA), and then the plate was incubated for 1 hour together with the β2-GPI and anti-β2-GPI antibodies (Cof-22 and EY2C9). Then, the plate was incubated for 1 hour with horseradish peroxidase (HRP)-labeled anti-mouse IgG antibody or anti-human IgM antibody. Between each step, the plate was washed sufficiently with PBS. Coloration was conducted using H2O2 and 4-methoxy-1-naphthol. In a TLC plate of control, the separated ligand was stained with I2 vapor.
Structure (SMILES),"β2-GPI-binding(OD) w/Cof-22, value in parentheses (β2-GPI [1])","β2-GPI-binding(OD) w/EY2C9, value in parentheses (β2-GPI [1])","β2-GPI-binding(OD) w/WB-CAL-1, value in parentheses (β2-GPI [1])",β2-GPI-binding(OD) w/Cof-22 (β2-GPI [1]),β2-GPI-binding(OD) w/EY2C9 (β2-GPI [1]),β2-GPI-binding(OD) w/WB-CAL-1 (β2-GPI [1]),β2-GPI binding in ligand blotting (β2-GPI [2])
"CC(C)CCC(=O)[C@@H](C)[C@H]1CC[C@H]2[C@@H]3CC=C4C[C@@H](OC(=O)CCCCCCCCC(=O)O)CC[C@]4(C)[C@H]3CC[C@]12C [9-COOH-22KC, 22-Ketocholesteryl-9-carboxynonanoate]",(0.067 +/− 0.013) OD,(0.046 +/− 0.008) OD,(0.031 +/− 0.011) OD,0.217 +/− 0.016 OD,0.130 +/− 0.024 OD,0.063 +/− 0.004 OD,
"CC(C)CCC[C@@H](C)[C@H]1CC[C@H]2[C@@H]3C(=O)C=C4C[C@@H](OC(=O)CCCCCCCCC(=O)O)CC[C@]4(C)[C@H]3CC[C@]12C [oxLig-1, 7-ketocholesteryl-9-carboxynonanoate]",(0.041 +/− 0.001) OD,(0.013 +/− 0.001) OD,(0.013 +/− 0.004) OD,1.194 +/− 0.099 OD,0.878 +/− 0.031 OD,0.441 +/− 0.007 OD,bound predominantly

# Source: patent US7455976B2, “Method of measuring oxidized LDL/β2-glycoprotein I complex occurring in the living body” (priority 2002, dated 2008)
